The source of these data is ChEMBL document CHEMBL3751807, “Design of High-Affinity Stapled Peptides To Target the Repressor Activator Protein 1 (RAP1)/Telomeric Repeat-Binding Factor 2 (TRF2) Protein-Protein Interaction in the Shelterin Complex” (J Med Chem, 2016).

A short description of data set [1]: Solubility of compound in phosphate buffer at 15 uM. It is filed as physicochemical.
Data set [2] concerns the target T1, Telomeric repeat-binding factor 2-interacting protein 1 (Homo sapiens, UniProt Q9NYB0).
T1 sequence (Q9NYB0 whole entry): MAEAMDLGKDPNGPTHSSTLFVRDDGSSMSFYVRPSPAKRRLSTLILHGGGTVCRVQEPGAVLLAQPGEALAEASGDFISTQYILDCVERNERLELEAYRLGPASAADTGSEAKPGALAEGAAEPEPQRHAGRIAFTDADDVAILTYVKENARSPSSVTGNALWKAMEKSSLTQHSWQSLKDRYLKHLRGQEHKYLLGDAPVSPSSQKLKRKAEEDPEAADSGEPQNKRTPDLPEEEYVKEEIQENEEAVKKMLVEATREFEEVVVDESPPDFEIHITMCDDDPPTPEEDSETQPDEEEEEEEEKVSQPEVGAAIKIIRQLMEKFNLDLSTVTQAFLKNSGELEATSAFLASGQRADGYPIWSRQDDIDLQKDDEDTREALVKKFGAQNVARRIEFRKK
As to the kind of experiment: Competitive binding to RAP1 (unknown origin) incubated for 1 hr by fluorescence polarization-based binding assay. (In general: In fluorescence polarisation assays a small probe gives low polarisation when free and higher when bound to something large.)

Data set [3] is described as follows: Solubility of compound in phosphate buffer at 100 uM. It is filed as physicochemical.

For the compound `C#CC[C@@H](NC(=O)[C@H](CCCCN)NC(=O)[C@H](Cc1ccccc1)NC(=O)[C@H](C)NC(=O)[C@H](CCCCN=[N+]=[N-])NC(=O)[C@H](CCCCN)NC(=O)[C@H](CC(C)C)NC(=O)[C@@H](NC(=O)[C@H](CCSC)NC(=O)[C@H](CCSC)NC(=O)CNC(=O)[C@@H](NC(=O)[C@@H](NC(=O)[C@@H](NC(C)=O)[C@@H](C)O)[C@@H](C)O)[C@@H](C)CC)[C@@H](C)O)C(=O)N[C@@H](CC(C)C)C(=O)N[C@@H](CO)C(N)=O`, the solubility result in data set [1] is reported as “Insoluble”.

The IC50 is the concentration needed to halve the response being measured. The low end stands for greater potency, the high end for weaker potency. As for Ac-TTIGMKTLKAAFKT-NH2, the IC50 in data set [2] was over 200 µM.

Regarding `CC[C@@H](C)[C@H](NC(=O)[C@@H](NC(=O)[C@@H](NC(C)=O)[C@@H](C)O)[C@@H](C)O)C(=O)NCC(=O)N[C@@H](CCSC)C(=O)N[C@@H](CCSC)C(=O)N[C@H](C(=O)N[C@@H](CC(C)C)C(=O)N[C@@H](CCCCN)C(=O)N[C@@H]1CCCCn2cc(nn2)C[C@H](C(=O)N[C@@H](CC(C)C)C(=O)N[C@H](CO)C(N)=O)NC(=O)[C@@H](CCCCN)NC(=O)[C@@H](Cc2ccccc2)NC(=O)[C@H](C)NC1=O)[C@@H](C)O` (stereo in doubt), the solubility entry in data set [3] is “soluble”.
